Non-standard residues stand in square brackets, D forms with d. Primed or numbered codes have the meaning given here. No end group written: not given here. PEG12(3) = not defined here
How the values were obtained:
MDA-MB-231 cells [1] = test: Cell viability, MTS assay in MDA-MB-231 cells; assay type: cell-based, human
Method: Test compounds and reference compound staurosporine (Selleckchem) were all dissolved with DMSO at 10 mM stock. […] Activity was calculated relative to DMSO control. […] Cell viability was 3% of the DMSO control value for Staurosporine (10 μM).

MCF-7 cells = test: Cell viability, MTS assay in MCF-7 cells
Method: Peptides and reference compound staurosporine (Selleckchem) were dissolved with DMSO at 10 mM stock. CellTiter 96@ AQueous One Solution Reagent (MTS assay reagent) was purchased from Promega (Madison, Wis.). MCF-7 human breast cancer cell line was purchased from American Type Culture Collection (Manassas, Va.). MCF-7 cells were grown in EMEM Medium supplemented with 10% FBS and 0.01 mg/ml human recombinant insulin. 100 μg/ml penicillin and 100 μg/ml streptomycin were added to the culture medium. Cells were incubated with test peptides at 10 μM at 37° C. in a humidified atmosphere of 5% CO2 and 95% air for 72 hours. 5 μl of CellTiter 96@ AQueous One Solution Reagent (MTS assay reagent) was added to each well and incubated at 37° C., 5% CO2 for 5 hours. Absorbance at 492 nm was recorded by Envision 2104 Multilabel Reader. Treatment with DMSO alone was used as the cell viability activity control. The relative standard deviation of the DMSO control was 3%.

3T3-L1 adipocytes = test: Free fatty acid levels in cultured 3T3-L1 mouse adipocytes (Example 4, 25 μM); settings: for Free Fatty Acid Levels, Percent of Control Value: peptide 25 μM, 20-22 h then 3 h with isoproterenol 1 nM, relative to isoproterenol control
Method: Mouse 3T3-L1 adipocytes were seeded at 3,000 cells per well in 96-well plates in Pre-adipocyte Medium (Zen-Bio, Durham, N.C.) and grown to confluence at 37° C. in a humidified atmosphere of 5% CO2/95% air. Two days after confluence, cells were placed in Adipocyte Differentiation Medium (Zen-Bio, Durham, N.C.) and cultured for three additional days at 37° C. in a humidified atmosphere of 5% CO2/95% air. The culture media was then replaced with Adipocyte Maintenance Medium (Zen-Bio) and the cells maintained for an additional 9-12 days at 37° C. in a humidified atmosphere of 5% CO2/95% air with partial medium replacement every other day. Following 12-15 days' differentiation, test peptides were added to a final concentration of 25 μM and incubated for 20-22 hours in Adipocyte Maintenance Medium. After 20-22 hours, isoproterenol (1 nM) was added to all wells except untreated controls and test peptides were replenished. Cells were incubated for a further 3 hours in Assay Buffer (Zen-Bio). Free fatty acid concentrations in the media were determined using a Free Fatty Acid Assay Kit (Zen-Bio) according to the manufacturer's instructions using a plate reader (540 nm). Absorbance values were corrected for untreated background and expressed relative to isoproterenol treated cells. Treatment with isoproterenol (1 nM) alone was used as the free fatty acid level stimulatory control.

MDA-MB-231 cells [2] = test: Caspase 3/7 activity in MDA-MB-231 cells (Caspase-Glo 3/7); assay type: cell-based, human
Method: The effect of the peptides on cell death/survival can be assessed using a caspase-3 assay. Peptides were dissolved with DMSO at 10 mM stock. […] Staurosporine (Selleckchem) was dissolved with DMSO at 1 mM stock. Caspase-Glo 3/7 Assay Reagent was purchased from Promega (Madison, Wis.). MDA-MB-231 human breast cancer cell line was purchased from American Type Culture Collection (Manassas, Va.). MDA-MB-231 cells were grown in DMEM Medium supplemented with 10% FBS. 100 μg/ml penicillin and 100 μg/ml streptomycin were added to the culture medium. […] 25 μl of Caspase-Glo 3/7 Assay Reagent was added to each well and incubated at 37° C., 5% CO2 for 1 hour. Luminescence for each sample well on the plate was measured by Envision 2104 Multilabel Reader (PerkinElmer, Santa Clara, Calif.). Activity was calculated relative to DMSO control.

C2C12 cells = test: Caspase 3/7 activity in C2C12 cells; assay type: cell-based, mouse; settings: staurosporine 100 nM, positive control
Method: The effect of the peptides on cell death/survival can be assessed using a caspase-3/7 assay in cultured cells such as mouse myoblast cells. Peptides were initially prepared as 10 mM stock in DMSO, diluted to 1 mM in H2O, and used at a final concentration of 10 μM (0.1% DMSO). […] Staurosporine (Abcam, Cambridge, Mass.) was dissolved at 10 mM in DMSO as a stock solution. Caspase-Glo 3/7 Assay Reagent was purchased from Promega (Madison, Wis.). C2C12 cell line was purchased from American Type Culture Collection (Manassas, Va.). C2C12 cells were grown in DMEM supplemented with 20% FBS with 100 IU/ml penicillin and 100 μg/ml streptomycin. […] C2C12 cells were seeded at 4,000 cells per well on 96-well plates. […] Caspase 3/7 activity was determined using a Caspase-Glo 3/7 Assay kit according to the manufacturer's instructions. Luminescence for each sample well on the plate was measured using a Cytation 3 plate reader (BioTek, Winooski, Vt.). Activity was calculated relative to 0.1% DMSO control.

Male DIO mice = test: Metabolic parameters in diet induced obese (DIO) mice, Example 20; assay type: in vivo, mouse; settings: N = 8
Method: Male C57BL/6 mice were maintained on a high fat diet for 18 weeks to develop diet induced obesity. Animals were randomized to treatment groups based on blood glucose levels and body weight. The peptides of the invention were administered to groups of male DIO mice once or twice daily by intraperitoneal injection at a dose of 5 mg/kg/dose for 8 to 10 days (N=8 animals per treatment group). Additional groups of male DIO mice (n=8) received vehicle (water) alone administered once or twice daily by intraperitoneal injection. Body weight, blood glucose levels and food intake were monitored. Body mass distribution (fat vs lean) was determined by quantitative whole body NMR prior to dosing and at the end of dosing.

H4-IIE cells = test: Glucose production in cultured H4-IIE cells and insulin dependence; assay type: cell-based, rat; settings: insulin 800 μM, modest inhibitor control
Method: The effect of the peptides on glucose homeostasis can be assessed using an assay to monitor glucose production by cultured cells such as rat hepatocytes. […] Following 24 h incubation, conditioned medium from each well was transferred to a fresh 96-well plate. Glucose concentrations in the medium were determined using a Glucose Assay kit (Abcam; Cambridge, Mass.) according to the manufacturer's instructions; absorbance measured using a Cytation 3 plate reader at 570 nm (BioTek, Winooski, Vt.). […] Untreated cells were used as reference for maximal glucose production. […] Insulin at 800 μM was used as a modest inhibitor glucose production. […] Data are presented as averages values from 2-4 independent experiments with each data point performed in triplicate.

3T3-L1 mouse adipocytes [3] = test: Free fatty acid levels in cultured 3T3-L1 mouse adipocytes and insulin dependence (Example 17); assay type: cell-based; settings: insulin 10 nM, positive control
Method: The effect of the peptides on fatty acid metabolism can be assessed using an assay to monitor free fatty acid levels produced by cultured cells such as mouse adipocytes. […] Following 3 h incubation, conditioned medium from each well was transferred to a fresh 96-well plate. […] Absorbance values were expressed as percent control activity relative to 0.1 nM isoproterenol treated cells (no insulin) for 10 μM peptide alone or 0.25 nM insulin treated cells (with insulin) for 10 μM peptide in presence of 0.25 nM insulin. […] Data are presented as averages values from 2-3 independent experiments with each data point performed in triplicate.

3T3-L1 mouse adipocytes [4] = test: Free fatty acid levels in 3T3-L1 mouse adipocytes (Example 12, 10 μM); assay type: cell-based; settings: insulin 100 nM, positive control
Method: The effect of the peptides on fatty acid metabolism can be assessed using an assay of free fatty acid levels in cultured cells such as mouse adipocytes. Peptides were initially prepared as 10 mM stock in DMSO, diluted to 1 mM in H2O, and used at a final concentration of 10 μM (0.1% DMSO). […] Insulin at 100 nM was added to control wells.

[5] = staurosporine 10 μM, positive control
[6] = 5 mg/kg/dose QD intraperitoneal, 10 days
[7] = 5 mg/kg/dose BID intraperitoneal, 8 days

Compound: 2 (MRRIIGIVFQCLCGL) [compound 2]
- MTS Assay, Percent of Control Activity (MDA-MB-231 cells [1]; 72 hours, relative to DMSO control, concentration not given): 79%
- MTS Assay, Percent of Control Activity (MCF-7 cells; peptide 10 μM, 72 hours, relative to DMSO control): 67%
- Free Fatty Acid Levels, Percent of Control Value (3T3-L1 adipocytes): 97%
- Caspase 3/7 Activity, Percent of Control Activity (MDA-MB-231 cells [2]; peptide 10 μM, 18 hours, relative to DMSO control): 62%

Compound: 3 (RRIIGIVFQCLCGL) [compound 3]
- Free Fatty Acid Levels, Percent of Control Value (3T3-L1 adipocytes): 89%

Compound: 4 (RRIIGIVFQCLCG) [compound 4]
- Free Fatty Acid Levels, Percent of Control Value (3T3-L1 adipocytes): 100%

Compound: 5 (RRIIGIVFQCLC) [compound 5]
- Free Fatty Acid Levels, Percent of Control Value (3T3-L1 adipocytes): 115%

Compound: CN[C@@H]1C[C@H]2O[C@@](C)([C@@H]1OC)n1c3ccccc3c3c4c(c5c6ccccc6n2c5c31)C(=O)NC4 [staurosporine, reference compound]
- Caspase 3/7 activity, % of background-corrected DMSO control value (C2C12 cells): 670%
- Cell viability, % of DMSO control value (MDA-MB-231 cells [1]; [5]): 3%
- Cell viability, % of background corrected DMSO control value (MCF-7 cells; [5]): < 5%
- Caspase activity, % of background-corrected DMSO control value (MDA-MB-231 cells [2]; staurosporine 0.05 nM, positive control): 130%

Compound: (PEG12)KRRIIGIVFQCLCG(dA) ([PEG12(3)]KRRIIGIVFQCLCG[dA]; cysteine pairing not given here) [SEQ ID NO: 42]
- Difference from Vehicle Control: Decrease from Baseline in Blood Glucose (Male DIO mice; [6]): -10.7 mg/dL
- Difference from Vehicle Control: Decrease from Baseline in Body Weight (Male DIO mice; [6]): −2.94%

Compound: (PEG12)KRRMMGMVFQCLCG(dA) (KRRMMGMVFQCLCGA; N-terminal PEG12; C-terminal D-alanine; (1)..(1) PEG12; (15)..(15) d-Ala) [SEQ ID NO: 20]
- Difference from Vehicle Control: Decrease from Baseline in Blood Glucose (Male DIO mice; [6]): -0.75 mg/dL
- Difference from Vehicle Control: Decrease from Baseline in Body Weight (Male DIO mice; [6]): −3.59%
- Difference from Vehicle Control: Decrease from Baseline in Fat Mass (Male DIO mice; [6]): -1.78 g

Compound: RRMMGMVEQSLCG(dA) (RRMMGMVEQSLCG[dA]) [SEQ ID NO: 38]
- Difference from Vehicle Control: Decrease from Baseline in Blood Glucose (Male DIO mice; [6]): -24.1 mg/dL
- Difference from Vehicle Control: Decrease from Baseline in Body Weight (Male DIO mice; [6]): −3.12%

Compound: RRMMGMVFQCLCG(dA) (RRMMGMVFQCLCG[dA]; cysteine pairing not given here) [SEQ ID NO: 8]
- Difference from Vehicle Control: Decrease from Baseline in Blood Glucose (Male DIO mice; [7]): -14.3 mg/dL
- Difference from Vehicle Control: Decrease from Baseline in Body Weight (Male DIO mice; [7]): −5.66%
- Difference from Vehicle Control: Decrease from Baseline in Fat Mass (Male DIO mice; [7]): -2.15 g

Compound: RRMMGMVFQSLCG(dA) (RRMMGMVFQSLCG[dA]) [SEQ ID NO: 15]
- Difference from Vehicle Control: Decrease from Baseline in Blood Glucose (Male DIO mice; [6]): -3.38 mg/dL
- Difference from Vehicle Control: Decrease from Baseline in Body Weight (Male DIO mice; [6]): −4.97%
- Difference from Vehicle Control: Decrease from Baseline in Fat Mass (Male DIO mice; [6]): -2.19 g

Compound: insulin [reference compound]
- Glucose levels, % of untreated control value (H4-IIE cells): 20-50%
- Free fatty acid levels, % of isoproterenol control value (3T3-L1 mouse adipocytes [3]): < 5%
- Free fatty acid levels, % of isoproterenol control value (3T3-L1 adipocytes; insulin 100 nM, positive control): < 5%
- Free fatty acid levels, % of isoproterenol control value (3T3-L1 mouse adipocytes [4]): < 5%
